In patent EP4745137A1 (Gluetacs Therapeutics (Shanghai) Co., Ltd., priority 2023, dated 2025):

How the values were obtained:
IKZF2 = molecular target: T1, IKZF2 (Homo sapiens, UniProt Q96SW2+Q9UKS7); experiment: Western-blot assay of substrate protein degradation in hPBMCs, IKZF2; format: cell-based; conditions: 24 hours of compound treatment
T1 construct: endogenous in cells; host or cells: hPBMCs (Milecell Biotechnologies)

Jurkat = experiment: Tumor cell proliferation inhibition (CellTiter-Meiluncell Luminescent Cell Viability Assay), Jurkat; conditions: Homo sapiens, read-out: inhibitory activity (IC50, nM) against tumor cells proliferation, Jurkat
[1] = tested on: Human acute T lymphocytic leukemia cells (Molt-4); experiment: Tumor cell proliferation inhibition (CellTiter-Meiluncell Luminescent Cell Viability Assay), Molt-4; conditions: MOLT-4, read-out: inhibitory activity (IC50, nM) against tumor cells proliferation, Molt-4
MV-4-11 = experiment: Tumor cell proliferation inhibition (CellTiter-Meiluncell Luminescent Cell Viability Assay), MV-4-11; conditions: Homo sapiens, MV4-11, read-out: inhibitory activity (IC50, nM) against tumor cells proliferation, MV-4-11
Experimental: (§1) The tumor cells used herein were cultured in a cell culture medium listed in table 2 at 37°C in an incubator with 5% CO2. Prior to experimentation, all cell lines used were correctly identified by STR profiling, and tested negative for mycoplasma contamination using a mycoplasma detection kit through routine screenings.
On the following day, the test compounds of the present disclosure were subjected to serial dilution. […] Subsequently, 0.5 µL of the test compound dilution was transferred into the 96-well plate containing the cells, with each well containing 100 µL of cell culture medium. […] Into the 96-well plate, the diluted test compounds and corresponding detection reagents were added, resulting in final test compound concentrations of 500 nM and 10 nM, respectively.
(§2) After the cells were treated with the compounds of the present disclosure for a specified period (the treatment durations were shown in Table 3), the cell viability assay reagent was added to the culture medium according to the kit's instructions to determine cell viability. […] All controls were treated using the same procedure as the compounds of the present disclosure. The growth inhibition curves for the compounds of the present disclosure were plotted using Prism GraphPad software, and the IC50 values were calculated therefrom.

GSPT1 = molecular target: T2, GSPT1 (Homo sapiens, UniProt P15170+Q96SW2); experiment: Western-blot assay of substrate protein degradation in hPBMCs, GSPT1; format: cell-based; conditions: 24 hours of compound treatment
T2 construct: endogenous in cells; host or cells: hPBMCs (Milecell Biotechnologies)
T2 sequence (P15170 whole entry): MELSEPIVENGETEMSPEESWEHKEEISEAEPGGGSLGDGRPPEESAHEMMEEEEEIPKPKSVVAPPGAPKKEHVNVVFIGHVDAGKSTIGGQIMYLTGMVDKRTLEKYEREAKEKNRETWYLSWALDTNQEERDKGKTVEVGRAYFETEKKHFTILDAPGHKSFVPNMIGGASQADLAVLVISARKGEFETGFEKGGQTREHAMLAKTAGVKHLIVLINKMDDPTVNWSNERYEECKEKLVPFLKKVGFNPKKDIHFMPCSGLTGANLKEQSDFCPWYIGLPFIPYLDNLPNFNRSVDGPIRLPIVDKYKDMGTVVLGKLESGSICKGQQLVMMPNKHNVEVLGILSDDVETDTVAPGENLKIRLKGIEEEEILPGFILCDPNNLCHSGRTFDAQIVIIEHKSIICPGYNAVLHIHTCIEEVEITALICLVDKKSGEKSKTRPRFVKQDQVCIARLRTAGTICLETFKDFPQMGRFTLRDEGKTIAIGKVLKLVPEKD
T2 sequence (Q96SW2 whole entry): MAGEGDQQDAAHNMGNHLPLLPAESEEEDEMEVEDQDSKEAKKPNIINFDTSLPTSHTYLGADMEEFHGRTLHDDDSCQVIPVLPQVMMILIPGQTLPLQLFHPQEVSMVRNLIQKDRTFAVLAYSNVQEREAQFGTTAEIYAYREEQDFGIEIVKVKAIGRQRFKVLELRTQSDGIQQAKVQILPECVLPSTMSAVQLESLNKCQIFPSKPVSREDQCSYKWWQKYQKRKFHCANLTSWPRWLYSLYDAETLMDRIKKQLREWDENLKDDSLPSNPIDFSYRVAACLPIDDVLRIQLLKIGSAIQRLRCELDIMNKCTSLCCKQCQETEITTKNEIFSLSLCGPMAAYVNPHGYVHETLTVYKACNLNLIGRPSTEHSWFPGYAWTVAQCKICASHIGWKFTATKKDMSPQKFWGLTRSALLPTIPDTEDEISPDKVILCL
T2 sequence (Q16531 whole entry partner): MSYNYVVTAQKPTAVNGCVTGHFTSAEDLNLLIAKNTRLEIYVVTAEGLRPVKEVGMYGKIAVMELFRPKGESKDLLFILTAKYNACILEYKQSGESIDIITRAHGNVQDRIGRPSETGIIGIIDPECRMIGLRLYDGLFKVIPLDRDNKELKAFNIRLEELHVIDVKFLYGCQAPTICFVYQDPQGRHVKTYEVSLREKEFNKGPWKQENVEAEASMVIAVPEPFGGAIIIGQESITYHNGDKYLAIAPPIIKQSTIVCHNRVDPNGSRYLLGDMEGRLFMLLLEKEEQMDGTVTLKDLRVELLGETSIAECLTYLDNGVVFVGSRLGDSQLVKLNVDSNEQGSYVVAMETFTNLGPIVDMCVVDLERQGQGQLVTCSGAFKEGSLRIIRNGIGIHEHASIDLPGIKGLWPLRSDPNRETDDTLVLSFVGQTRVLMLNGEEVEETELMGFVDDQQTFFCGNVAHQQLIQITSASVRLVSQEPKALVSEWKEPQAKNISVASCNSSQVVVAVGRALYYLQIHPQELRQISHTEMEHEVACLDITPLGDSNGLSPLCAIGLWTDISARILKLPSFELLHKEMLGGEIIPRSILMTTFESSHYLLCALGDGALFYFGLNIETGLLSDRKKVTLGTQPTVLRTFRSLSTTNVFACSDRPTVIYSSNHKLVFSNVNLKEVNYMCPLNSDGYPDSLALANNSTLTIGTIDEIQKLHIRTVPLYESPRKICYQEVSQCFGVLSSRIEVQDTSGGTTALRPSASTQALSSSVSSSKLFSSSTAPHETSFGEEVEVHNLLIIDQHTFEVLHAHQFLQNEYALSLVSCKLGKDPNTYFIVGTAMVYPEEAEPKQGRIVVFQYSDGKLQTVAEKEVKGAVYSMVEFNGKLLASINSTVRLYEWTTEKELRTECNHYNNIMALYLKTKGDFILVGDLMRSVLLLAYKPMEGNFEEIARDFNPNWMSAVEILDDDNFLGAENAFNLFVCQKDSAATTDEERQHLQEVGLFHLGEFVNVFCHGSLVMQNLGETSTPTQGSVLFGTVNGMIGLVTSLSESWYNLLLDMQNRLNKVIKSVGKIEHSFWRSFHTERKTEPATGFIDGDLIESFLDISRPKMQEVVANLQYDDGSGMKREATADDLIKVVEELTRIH

IKZF3 = molecular target: T3, IKZF3 (Homo sapiens, UniProt Q96SW2+Q9UKT9); experiment: Western-blot assay of substrate protein degradation in hPBMCs, IKZF3; format: cell-based; conditions: 24 hours of compound treatment
T3 construct: endogenous in cells; host or cells: hPBMCs (Milecell Biotechnologies)
T3 sequence (Q9UKT9 whole entry): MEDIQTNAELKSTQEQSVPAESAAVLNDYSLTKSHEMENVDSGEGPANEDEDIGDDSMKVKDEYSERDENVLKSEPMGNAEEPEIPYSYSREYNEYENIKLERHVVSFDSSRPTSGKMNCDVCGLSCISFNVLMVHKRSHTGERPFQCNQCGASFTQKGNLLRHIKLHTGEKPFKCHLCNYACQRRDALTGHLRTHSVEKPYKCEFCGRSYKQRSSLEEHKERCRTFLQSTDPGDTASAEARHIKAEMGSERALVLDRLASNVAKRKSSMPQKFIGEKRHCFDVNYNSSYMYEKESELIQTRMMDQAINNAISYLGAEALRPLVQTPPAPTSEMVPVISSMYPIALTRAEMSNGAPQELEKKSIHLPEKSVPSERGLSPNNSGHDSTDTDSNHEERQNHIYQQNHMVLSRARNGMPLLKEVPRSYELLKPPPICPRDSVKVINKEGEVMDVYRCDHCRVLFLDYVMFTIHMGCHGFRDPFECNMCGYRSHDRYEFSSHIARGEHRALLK
T3 sequence (Q96SW2 whole entry): as the sequence (Q96SW2 whole entry) above
T3 sequence (Q16531 whole entry partner): as the sequence (Q16531 whole entry partner) above

CK1α = molecular target: T4, CK1α (Homo sapiens, UniProt P48729+Q96SW2); experiment: Western-blot assay of substrate protein degradation in hPBMCs, CK1α; format: cell-based; conditions: 24 hours of compound treatment
T4 construct: endogenous in cells; host or cells: hPBMCs (Milecell Biotechnologies)
T4 sequence (P48729 whole entry): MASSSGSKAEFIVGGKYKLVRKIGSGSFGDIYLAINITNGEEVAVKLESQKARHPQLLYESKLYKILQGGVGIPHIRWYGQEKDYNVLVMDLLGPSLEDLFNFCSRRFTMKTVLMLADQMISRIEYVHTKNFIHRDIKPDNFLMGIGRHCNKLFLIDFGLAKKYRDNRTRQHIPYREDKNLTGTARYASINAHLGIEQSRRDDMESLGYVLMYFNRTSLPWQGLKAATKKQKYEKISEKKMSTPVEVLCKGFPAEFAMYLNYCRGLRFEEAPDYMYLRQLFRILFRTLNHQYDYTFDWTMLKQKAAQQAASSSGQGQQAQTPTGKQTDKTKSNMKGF
T4 sequence (Q96SW2 whole entry): as the sequence (Q96SW2 whole entry) above
T4 sequence (Q16531 whole entry partner): as the sequence (Q16531 whole entry partner) above

MM.1S = experiment: Tumor cell proliferation inhibition (CellTiter-Meiluncell Luminescent Cell Viability Assay), MM.1S; conditions: Homo sapiens, MM1.S, read-out: inhibitory activity (IC50, nM) against tumor cells proliferation, MM.1S
IKZF1 = molecular target: T5, IKZF1 (Homo sapiens, UniProt Q13422+Q96SW2); experiment: Western-blot assay of substrate protein degradation in hPBMCs, IKZF1; format: cell-based; conditions: 24 hours of compound treatment
T5 construct: endogenous in cells; host or cells: hPBMCs (Milecell Biotechnologies)
T5 sequence (Q13422 whole entry): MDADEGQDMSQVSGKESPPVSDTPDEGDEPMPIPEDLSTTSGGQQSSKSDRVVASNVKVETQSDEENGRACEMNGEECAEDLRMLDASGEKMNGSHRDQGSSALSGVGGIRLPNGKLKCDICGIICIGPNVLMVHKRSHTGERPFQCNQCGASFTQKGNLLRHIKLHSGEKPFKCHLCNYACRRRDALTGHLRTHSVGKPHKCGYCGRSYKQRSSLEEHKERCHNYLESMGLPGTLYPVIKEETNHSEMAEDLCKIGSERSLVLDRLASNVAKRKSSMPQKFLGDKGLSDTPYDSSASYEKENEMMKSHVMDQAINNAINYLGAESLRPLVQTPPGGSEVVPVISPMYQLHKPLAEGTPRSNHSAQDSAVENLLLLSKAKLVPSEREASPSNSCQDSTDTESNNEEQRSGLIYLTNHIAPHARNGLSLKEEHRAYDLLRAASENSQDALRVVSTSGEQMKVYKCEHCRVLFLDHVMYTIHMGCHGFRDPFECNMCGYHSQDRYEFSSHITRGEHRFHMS
T5 sequence (Q96SW2 whole entry): as the sequence (Q96SW2 whole entry) above
T5 sequence (Q16531 whole entry partner): as the sequence (Q16531 whole entry partner) above

CCRF-CEM = experiment: Tumor cell proliferation inhibition (CellTiter-Meiluncell Luminescent Cell Viability Assay), CCRF-CEM; conditions: Homo sapiens, read-out: inhibitory activity (IC50, nM) against tumor cells proliferation, CCRF-CEM
Experimental: as §1
On the following day, the test compounds of the present disclosure were subjected to serial dilution. […] Subsequently, 0.5 µL of the test compound dilution was transferred into the 96-well plate containing the cells, with each well containing 100 µL of cell culture medium. […] Into the 96-well plate, the diluted test compounds and corresponding detection reagents were added, resulting in final test compound concentrations of 500 nM and 10 nM, respectively. The experimental procedure is described below using the diluted 2 µM test compound as an example.
as §2

WEE1 = molecular target: T6, WEE1 (Homo sapiens, UniProt P30291+Q96SW2); experiment: Western-blot assay of substrate protein degradation in hPBMCs, WEE1; format: cell-based; conditions: 24 hours of compound treatment
T6 construct: endogenous in cells; host or cells: hPBMCs (Milecell Biotechnologies)
T6 sequence (P30291 whole entry): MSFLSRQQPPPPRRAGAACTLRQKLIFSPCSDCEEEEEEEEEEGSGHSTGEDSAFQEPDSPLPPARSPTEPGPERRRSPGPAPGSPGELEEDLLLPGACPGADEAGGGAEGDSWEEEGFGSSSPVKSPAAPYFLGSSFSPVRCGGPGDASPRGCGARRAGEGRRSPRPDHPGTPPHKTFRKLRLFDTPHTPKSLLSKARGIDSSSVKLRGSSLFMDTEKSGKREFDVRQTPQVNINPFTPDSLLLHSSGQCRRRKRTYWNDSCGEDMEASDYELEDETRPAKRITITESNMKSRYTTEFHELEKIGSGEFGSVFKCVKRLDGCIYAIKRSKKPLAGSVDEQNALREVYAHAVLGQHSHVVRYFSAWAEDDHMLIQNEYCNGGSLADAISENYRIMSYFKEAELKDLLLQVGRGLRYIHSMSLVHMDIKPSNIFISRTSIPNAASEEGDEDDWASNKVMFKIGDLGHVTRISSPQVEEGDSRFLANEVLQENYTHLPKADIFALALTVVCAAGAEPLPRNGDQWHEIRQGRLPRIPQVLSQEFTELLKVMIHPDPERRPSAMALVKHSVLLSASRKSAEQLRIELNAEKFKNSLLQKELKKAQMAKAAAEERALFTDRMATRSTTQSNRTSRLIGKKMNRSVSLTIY
T6 sequence (Q96SW2 whole entry): as the sequence (Q96SW2 whole entry) above
T6 sequence (Q16531 whole entry partner): as the sequence (Q16531 whole entry partner) above

[2] = molecular target: T7, human Cereblon WT GST-tagged protein (Homo sapiens, UniProt Q96SW2); experiment: CRBN-binding affinity by HTRF (CEREBLON BINDING kit); conditions: HTRF inhibitory activity, CEREBLON BINDING kit; read-out: HTRF IC50
T7 construct: purchased CISBIO 64BDCRBNPEH
T7 sequence (Q96SW2 whole entry): as the sequence (Q96SW2 whole entry) above

NCI-H1975 = experiment: Tumor cell proliferation inhibition (CellTiter-Meiluncell Luminescent Cell Viability Assay), NCI-H1975; conditions: Homo sapiens, NCI-H1975, read-out: inhibitory activity (IC50, nM) against tumor cells proliferation, H1975
SR = experiment: Tumor cell proliferation inhibition (CellTiter-Meiluncell Luminescent Cell Viability Assay), SR; conditions: Homo sapiens, read-out: inhibitory activity (IC50, nM) against tumor cells proliferation, SR
[3] = 50 nM and 500 nM tested (concentration behind the class not stated)
[4] = compounds tested at 50 nM and 500 nM (concentration of the table not stated)

SMILES | IKZF2 substrate protein remaining % (IKZF2; [3]) | IC50 (Jurkat) | IC50 [1] | IC50 (MV-4-11) | GSPT1 substrate protein remaining % (GSPT1; [3]) | IKZF3 substrate protein remaining % (IKZF3; [3]) | CK1a substrate protein remaining % (CK1α; [3]) | IC50 (MM.1S) | IKZF 1 substrate protein remaining % (IKZF1; [3]) | IC50 (CCRF-CEM) | Weel substrate protein remaining % (WEE1; [3]) | IC50 [2] | IKZF2 substrate protein remaining % (IKZF2; [4]) | IC50 (NCI-H1975) | GSPT1 substrate protein remaining % (GSPT1; [4]) | IKZF3 substrate protein remaining % (IKZF3; [4]) | CK1a substrate protein remaining % (CK1α; [4]) | IC50 (SR) | IKZF 1 substrate protein remaining % (IKZF1; [4]) | Weel substrate protein remaining % (WEE1; [4])
O=C1CCC(N2C(=O)c3ccc(CN4CCC(c5c[nH]c6cc(F)ccc56)CC4)cc3C2=O)C(=O)N1 (stereo not shown) [GT-06633, 2-(2,6-dioxopiperidin-3-yl)-5-((4-(6-fluoro-1H-indol-3-yl)piperidin-1-yl)methyl)isoindoline-1,3-dione] | A (0% ≤ substrate protein remaining % ≤ 80%) | 100 to 500 nM | 100 to 500 nM | 50 to 100 nM | A (0% ≤ substrate protein remaining % ≤ 80%) | A (0% ≤ substrate protein remaining % ≤ 80%) | A (0% ≤ substrate protein remaining % ≤ 80%) | 100 to 500 nM | A (0% ≤ substrate protein remaining % ≤ 80%) | 100 to 500 nM | A (0% ≤ substrate protein remaining % ≤ 80%) |  |  |  |  |  |  |  |  | 
Cn1cc(C2CCN(Cc3ccc4c(c3)C(=O)N(C3CCC(=O)NC3=O)C4=O)CC2)c2ccc(F)cc21 (stereo not shown) [GT-06635, 2-(2,6-dioxopiperidin-3-yl)-5-((4-(6-fluoro-1-methyl-1H-indol-3-yl)piperidin-1-yl)methyl)isoindoline-1,3-dione] | A (0% ≤ substrate protein remaining % ≤ 80%) | 100 to 500 nM | 50 to 100 nM | 10 to 50 nM | A (0% ≤ substrate protein remaining % ≤ 80%) | A (0% ≤ substrate protein remaining % ≤ 80%) | A (0% ≤ substrate protein remaining % ≤ 80%) | 100 to 500 nM | A (0% ≤ substrate protein remaining % ≤ 80%) | 50 to 100 nM | A (0% ≤ substrate protein remaining % ≤ 80%) |  |  |  |  |  |  |  |  | 
CC(C)c1cc2c(C3=CCN(Cc4ccc5c(c4)C(=O)N(C4CCC(=O)NC4=O)C5=O)CC3)ncnc2s1 (stereo not shown) [GT-06656, 2-(2,6-dioxopiperidin-3-yl)-5-((4-(6-isopropylthieno[2,3-d]pyrimidin-4-yl)-3,6-dihydropyridin-1(2H)-yl)methyl)isoindoline-1,3-dione] | A (0% ≤ substrate protein remaining % ≤ 80%) | 50 to 100 nM | 10 to 50 nM | 10 to 50 nM | A (0% ≤ substrate protein remaining % ≤ 80%) | A (0% ≤ substrate protein remaining % ≤ 80%) | B (80%< substrate protein remaining %≤ 100%) | 100 to 500 nM | A (0% ≤ substrate protein remaining % ≤ 80%) | 10 to 50 nM | A (0% ≤ substrate protein remaining % ≤ 80%) | 1000 to 1500 nM |  |  |  |  |  |  |  | 
O=C1CCC(N2C(=O)c3ccc(CN4CC=C(c5nccc(Cl)c5Cl)CC4)cc3C2=O)C(=O)N1 (stereo not shown) [GT-06608, 5-((3,4-dichloro-3',6'-dihydro-[2,4'-bipyridin]-1'(2'H)-yl)methyl)-2-(2,6-dioxopiperidin-3-yl)isoindoline-1,3-dione] | B (80%< substrate protein remaining %≤ 100%) | 100 to 500 nM | 100 to 500 nM | 10 to 50 nM | A (0% ≤ substrate protein remaining % ≤ 80%) | B (80%< substrate protein remaining %≤ 100%) | B (80%< substrate protein remaining %≤ 100%) | 100 to 500 nM | B (80%< substrate protein remaining %≤ 100%) | 100 to 500 nM | B (80%< substrate protein remaining %≤ 100%) | 1000 to 1500 nM |  |  |  |  |  |  |  | 
O=C1CCC(N2C(=O)c3ccc(CN4CC=C(c5ncnc6sc7c(c56)CCCC7)CC4)cc3C2=O)C(=O)N1 (stereo not shown) [GT-06680, 2-(2,6-dioxopiperidin-3-yl)-5-((4-(5,6,7,8-tetrahydrobenzo[4,5]thieno[2,3-d]pyrimidin-4-yl)-3,6-dihydropyridin-1(2H)-yl)methyl)isoindoline-1,3-dione] | A (0% ≤ substrate protein remaining % ≤ 80%) |  | 100 to 500 nM | 10 to 50 nM | A (0% ≤ substrate protein remaining % ≤ 80%) | A (0% ≤ substrate protein remaining % ≤ 80%) | B (80%< substrate protein remaining %≤ 100%) | 100 to 500 nM | A (0% ≤ substrate protein remaining % ≤ 80%) | 100 to 500 nM | A (0% ≤ substrate protein remaining % ≤ 80%) | 1500 to 1900 nM |  |  |  |  |  |  |  | 
Cn1cc(C2CCN(Cc3ccc4c(c3)CN(C3CCC(=O)NC3=O)C4=O)CC2)c2ccc(F)cc21 (stereo not shown) [GT-04858, 3-(5-((4-(6-fluoro-1-methyl-1H-indol-3-yl)piperidin-1-yl)methyl)-1-oxoisoindolin-2-yl)piperidine-2,6-dione] |  | 1 to 5 nM |  |  |  |  |  | < 1 nM |  |  |  | < 500 nM | A (0% ≤ substrate protein remaining % ≤ 80%) | 1 to 5 nM | A (0% ≤ substrate protein remaining % ≤ 80%) | A (0% ≤ substrate protein remaining % ≤ 80%) | B (80%< substrate protein remaining %≤ 100%) | 5 to 10 nM | A (0% ≤ substrate protein remaining % ≤ 80%) | A (0% ≤ substrate protein remaining % ≤ 80%)
O=C1CCC(N2Cc3cc(CN4CC=C(c5ncnc6sc7c(c56)CCC7)CC4)ccc3C2=O)C(=O)N1 (stereo not shown) [GT-04934, 3-(5-((4-(6,7-dihydro-5H-cyclopenta[4,5]thieno[2,3-d]pyrimidin-4-yl)-3,6-dihydropyridin-1(2H)-yl)methyl)-1-oxoisoindolin-2-yl)piperidine-2,6-dione] |  | 10 to 50 nM |  |  |  |  |  | < 1 nM |  |  |  | < 500 nM | A (0% ≤ substrate protein remaining % ≤ 80%) | 50 to 100 nM | A (0% ≤ substrate protein remaining % ≤ 80%) | A (0% ≤ substrate protein remaining % ≤ 80%) | A (0% ≤ substrate protein remaining % ≤ 80%) | 100 to 500 nM | A (0% ≤ substrate protein remaining % ≤ 80%) | A (0% ≤ substrate protein remaining % ≤ 80%)
Cc1ccc(Sc2ccccc2N2CCN(Cc3ccc4c(c3)C(=O)N(C3CCC(=O)NC3=O)C4=O)CC2)c(C)c1 (stereo not shown) [GT-06761, 5-((4-(2-((2,4-dimethylphenyl)thio)phenyl)piperazin-1-yl)methyl)-2-(2,6-dioxopiperidin-3-yl)isoindoline-1,3-dione] | A (0% ≤ substrate protein remaining % ≤ 80%) |  | 100 to 500 nM | 10 to 50 nM | A (0% ≤ substrate protein remaining % ≤ 80%) | A (0% ≤ substrate protein remaining % ≤ 80%) | A (0% ≤ substrate protein remaining % ≤ 80%) | 100 to 500 nM | A (0% ≤ substrate protein remaining % ≤ 80%) | 100 to 500 nM | A (0% ≤ substrate protein remaining % ≤ 80%) |  |  |  |  |  |  |  |  | 
O=C1CCC(N2Cc3cc(CN4C5CCC4CN(c4cccc(Cl)c4Cl)C5)ccc3C2=O)C(=O)N1 (stereo not shown) [GT-04855, 3-(5-((3-(2,3-dichlorophenyl)-3,8-diazabicyclo[3.2.1]octan-8-yl)methyl)-1-oxoisoindolin-2-yl)piperidine-2,6-dione] |  | 50 to 100 nM |  |  |  |  |  | 5 to 10 nM |  |  |  | < 500 nM | A (0% ≤ substrate protein remaining % ≤ 80%) | 50 to 100 nM | A (0% ≤ substrate protein remaining % ≤ 80%) | A (0% ≤ substrate protein remaining % ≤ 80%) | B (80%< substrate protein remaining %≤ 100%) | 500 to 1000 nM | A (0% ≤ substrate protein remaining % ≤ 80%) | A (0% ≤ substrate protein remaining % ≤ 80%)
